Literature values, collected in patent US8758823B2, “Method for obtaining non-water-soluble powders having antimicrobial activity, the powders thus obtained and the antibacterial use thereof” (Poly-Bio, priority 2009, dated 2014).

Test system: Staphylococcus aureus
Details: quaternary ammonium chloride in aqueous solution; AKZO NOBEL guideline formulation

Compound: CCCCCCCCCC[N+](C)(C)CCCCCCCCCC.[Cl-] [ARQUAD 210-50, didecyl dimethyl ammonium chloride]
- concentration recommended to obtain the same result (reduction greater than 5 Log): 12 to 16 ppm
